From patent US20040224954A1, “Substituted 1H-quinoxalin-2-one compounds and substituted 4-aryl- and 4-heteroarylcyclohexane compounds” (priority 2001, published 2004)
Structures can show the parent of a compound that is named as a salt.

How the values were obtained:
Male NMRI mice = assay: phenylquinone-induced writhing in mice (analgesic efficacy); format: in vivo; conditions: 10 mg/kg i.v., phenylquinone i.p. 10 minutes after compound, writhing counted 5-20 minutes after phenylquinone
Description: The investigation into analgesic efficacy was performed by phenylquinone-induced writhing in mice (modified after: I. C. Hendershot, J. Forsaith, J. Pharmacol. Exp. There. 125, 237-240 (1959)). The corresponding literature description is hereby introduced as a reference and is deemed to be part of the disclosure.
Male NMRI mice weighing from 25 to 30 g were used for this purpose. Groups of 10 animals per substance dose received, 10 minutes after intravenous administration of the compounds tested, 0.3 ml/mouse of a 0.02% aqueous solution of phenylquinone (phenylbenzoquinone, Sigma, Deisenhofen; solution prepared with addition of 5% of ethanol and stored in a water bath at 45° C.) administered intraperitoneally. The animals were placed individually in observation cages. A push button counter was used to record the number of pain-induced stretching movements (writhing reactions=straightening of the torso with stretching of the rear extremities) for 5-20 minutes after phenylquinone administration. The control was provided by animals which received only physiological common salt solution.
The compounds were tested at the standard dosage of 10 mg/kg. Inhibition of the writhing reactions by a substance was calculated according to the following formula: [formula]
The in-depth investigation into analgesic efficacy was performed using phenylquinone-induced writhing in mice, as described above.

COc1cccc(C2(O)CCC(OC(=O)c3nc4cc(Cl)c(Cl)cc4[nH]c3=O)CC2CN(C)C)c1 (centres unmarked) [Example 4, 6,7-dichloro-3-oxo-3,4-dihydroquinoxaline 2-carboxylic acid [3′-(N,N-dimethylaminomethyl)-4′-hydroxy-4′-(m-methoxyphenyl)-cyclohexyl] ester]
melting point: 175 to 177 °C
% inhibition of writhing reactions (Male NMRI mice): 84%

COc1cccc(C2(O)CCC(NC(=O)c3nc4cc(C)c(C)cc4[nH]c3=O)CC2CN(C)C)c1 (centres unmarked) [Example 1, 6,7-dimethyl-3-oxo-3,4-dihydroquinoxaline 2-carboxylic acid [3′-(N,N-dimethylaminomethyl)-4′-hydroxy-4′-(m-methoxyphenyl)-cyclohexyl]amide hydrochloride]
% inhibition of writhing reactions (Male NMRI mice): 72%

COc1cccc(C2(O)CCC(NC(=O)c3nc4cc(Cl)c(Cl)cc4[nH]c3=O)CC2CN(C)C)c1 (centres unmarked) [Example 2, 6,7-dichloro-3-oxo-3,4-dihydroquinoxaline 2-carboxylic acid [3′-(N,N-dimethylaminomethyl)-4′-hydroxy-4′-(m-methoxyphenyl)-cyclohexyl]amide]
% inhibition of writhing reactions (Male NMRI mice): 55%

COc1cccc(C2(O)CCC(OC(=O)c3nc4cc(C)c(C)cc4[nH]c3=O)CC2CN(C)C)c1 (centres unmarked) [Example 3, 6,7-dimethyl-3-oxo-3,4-dihydroquinoxaline 2-carboxylic acid [3′-(N,N-dimethylaminomethyl)-4′-hydroxy-4′-(m-methoxyphenyl)-cyclohexyl] ester]
% inhibition of writhing reactions (Male NMRI mice): 90%
